Where two headings read alike, the source gives them in different places.

The test system of assay [1] is LNCaP prostate cancer cells. Format: cell-based, human. Particulars: 48 h. The protocol: Cells were analyzed on a FACS Calibur (Becton Dickinson, San Jose, Calif.) flow cytometer, equipped with a 15 mW air-cooled argon laser, using CellQuest (Becton Dickinson) acquisition software. Propidium iodide (PI) fluorescence was collected through a 585/42-nm bandpass filter, and list mode data were acquired on a minimum of 12,000 single cells defined by a dot plot of PI-width versus PI-area. Data analysis was performed in ModFit LT (Verity Software House, Topsham, Me.) using PI-width versus PI-area to exclude cell aggregates.
The effects of TCDD on cell cycle progression was also determined in LNCaP cells treated with 1.0, 10 and 100 nM TCDD for 48 h followed by FACS analysis (Table 1).

Another assay deals with T1, hAR (Homo sapiens, UniProt P10275).
T1 construct: expressed in transfected cells; host or cells: ZR-75
T1 sequence (P10275 1-920): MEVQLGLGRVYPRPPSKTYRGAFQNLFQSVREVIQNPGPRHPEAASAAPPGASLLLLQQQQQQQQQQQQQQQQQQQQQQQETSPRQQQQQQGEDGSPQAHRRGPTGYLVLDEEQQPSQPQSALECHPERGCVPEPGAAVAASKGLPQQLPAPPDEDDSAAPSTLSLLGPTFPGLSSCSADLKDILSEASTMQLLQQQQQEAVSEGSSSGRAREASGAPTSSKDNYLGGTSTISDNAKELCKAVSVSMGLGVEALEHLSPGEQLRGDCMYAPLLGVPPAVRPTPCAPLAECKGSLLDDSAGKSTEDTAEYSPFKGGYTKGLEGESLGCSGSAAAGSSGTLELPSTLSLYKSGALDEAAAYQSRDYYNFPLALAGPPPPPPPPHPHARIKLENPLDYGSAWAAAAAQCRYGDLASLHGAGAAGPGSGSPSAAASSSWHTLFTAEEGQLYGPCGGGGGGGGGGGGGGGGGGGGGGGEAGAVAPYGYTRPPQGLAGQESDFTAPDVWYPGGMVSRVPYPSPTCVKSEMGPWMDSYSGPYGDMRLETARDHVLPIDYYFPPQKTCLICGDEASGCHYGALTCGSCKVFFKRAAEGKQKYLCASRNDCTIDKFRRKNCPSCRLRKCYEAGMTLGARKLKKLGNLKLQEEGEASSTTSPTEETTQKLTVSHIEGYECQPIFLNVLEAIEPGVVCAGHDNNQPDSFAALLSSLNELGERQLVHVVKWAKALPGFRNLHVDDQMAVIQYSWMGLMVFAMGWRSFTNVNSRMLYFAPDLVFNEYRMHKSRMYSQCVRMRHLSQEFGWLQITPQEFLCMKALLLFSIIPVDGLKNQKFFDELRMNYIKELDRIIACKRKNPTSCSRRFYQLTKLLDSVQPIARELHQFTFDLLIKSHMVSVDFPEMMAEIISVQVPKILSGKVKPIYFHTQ
Description: Hormone-induced transactivation in ZR-75 cells cotransfected with pPB and hAR. Format: cell-based. Particulars: cotreated with hormone plus TCDD. As for the experimental part: After 24 h, cells were transfected using Lipofectamine and Plus reagents (Invitrogen) according to manufacturer's instructions. LNCaP and ZR-75 cells were transfected with 500 ng/well of either reporter plasmid, and 250 ng/well of pcDNA3.1-β-gal (Invitrogen) as the internal control. In addition, ZR-75 cells were transfected with 500 ng hAR. Twenty-four hours after treatment, cells were harvested by scraping with 200 μL/well of reporter lysis buffer. Lysates were centrifuged at 40,000 g and luciferase and β-galactosidase activity was assayed with 30 μL of the supernatant extract per sample using a Lumicount luminometer (PerkinElmer, Boston, Mass.). Luciferase activity was normalized to β-galactosidase activity for each transfection well.

With `Clc1cc2c(cc1Cl)Oc1cc(Cl)c(Cl)cc1O2` [TCDD, 2,3,7,8-tetrachloro-p-dioxin], in assay [1] (1.0, 10 and 100 nM), the “cells in S phase” value is listed as “decrease” and the “percentage of cells in G0/G1” value was “small but significant increase”. Besides, in assay [1] (10^−7 M), the “Percent Distribution G0/G1” value came to 77.500 ± 0.451%, the “Percent Distribution G2/M” value was 8.943 ± 0.471% and the “Percent Distribution S” value came out at 13.567 ± 0.176%. For the same molecule, in assay [1] (10^−8 M), the “Percent Distribution G0/G1” value was 75.367 ± 0.636%, the “Percent Distribution G2/M” value was found to be 10.300 ± 0.153% and the “Percent Distribution S” value was found to be 14.3 ± 0.666%. In addition, in assay [1] (10^−9 M), the “Percent Distribution G0/G1” value is given as 74.300 ± 0.751%, the “Percent Distribution G2/M” value amounted to 10.633 ± 0.376% and the “Percent Distribution S” value is reported as 14.7 ± 0.520%. For the same molecule, at hAR, the “effect on DHT-induced activity” value is listed as “not” and the “effect on E2-induced activity” value is listed as “inhibited”.

Values taken from patent US20050143450A1, “Alkyl PCDF as a treatment for prostate cancer” (priority 2002, published 2005).
